Target: T1, human recombinant GPR65 (Homo sapiens, UniProt Q8IYL9)
T1 construct: host or cells: 1321N1 human astrocytoma cells (1321N1-hrGPR65)
Test: Human GPR65 cAMP HTRF antagonist assay
Type: cell-based
Conditions: 1321N1-hrGPR65 cells, assay pH 7.2, cAMP HTRF; read-out: hGPR65 IC50
Text: The “Human GPR65 cyclic adenosine monophosphate (cAMP) Homogeneous Time Resolved Fluorescence (HTRF) antagonist assay”, or simply “cAMP assay”, as described in the accompanying examples, can be used to measure the potency of GPR65 modulators, which is expressed as the concentration of compound required to reduce the increase in cAMP concentration upon GPR65 activation by 50% (i.e. an IC50).
Human GPR65 Cyclic Adenosine Monophosphate (cAMP) Homogeneous Time Resolved Fluorescence (HTRF) Antagonist Assay Procedure
IC50data was obtained by the following procedure:
1321N1 human astrocytoma cells stably expressing human recombinant GPR65 (1321N1-hrGPR65 cells, EuroscreenFast) were cultured according to the vendor's instructions.
Compounds were tested for their ability to antagonise GPR65, through measuring the concentration of cytoplasmic cAMP following treatment of the cells at a pH of 7.2 to activate GPR65 signalling and addition of the compound to be tested. The extent to which the expected rise in cAMP concentration upon GPR65 activation was suppressed by the added compound is indicative of its potency. The assay was carried out according to EuroscreenFast assay Methodology as follows.
On the day of the assay, test compounds were added to 384-well, low volume, white microtiter plates by acoustic dispensing. KRH buffer (5 mM KCl, 1.25 mM MgSO4, 124 mM NaCl, 25 mM HEPES, 13.3 mM Glucose, 1.25 mM KH2PO4 and 1.45 mM CaCl2) was adjusted to pH 6.5, pH 7.6 and pH 8.4 by adding NaOH. 1321N1-hGPR65 cells were rapidly thawed and diluted in KRH, pH 7.6 prior to centrifugation at 300×g for 5 min and resuspension in assay buffer (KRH, pH 7.6, supplemented with 1 mM 3-isobutyl-1-methylxanthine (IBMX) and 200 μM ethylenediaminetetraacetic acid (EDTA)). Cells were added to assay plates at a density of 2,000 cells per well in a volume of […]. Assay plates were briefly centrifuged at 100×g and then incubated at room temperature for 30 min. Cells were stimulated by the addition of 5 μL KRH, pH 6.5, to achieve an assay pH of 7.2, while control wells received […] KRH, pH 8.4 to achieve an assay pH of 7.9. Assay plates were briefly centrifuged at 100×g and then incubated at room temperature for 30 min.
Accumulation of cAMP was detected by cAMP HTRF kit (Cisbio). d2-labeled cAMP and cryptate-labeled anti-cAMP antibody in Lysis and Detection Buffer (Cisbio) were added to assay plates, and the plates were incubated at room temperature for 1 h. HTRF measurements were performed using a Pherastar FSX instrument. Acceptor and donor emission signals were measured at 665 nm and 620 nm, respectively, and HTRF ratios were calculated as signal665 nm/signal620 nm×104. Data were normalised to high and low control values and fitted with 4-parameter logistic regression to determine hGPR65 IC50 values for the test compounds, which are shown in Table 1.

T1 sequence (Q8IYL9 whole entry): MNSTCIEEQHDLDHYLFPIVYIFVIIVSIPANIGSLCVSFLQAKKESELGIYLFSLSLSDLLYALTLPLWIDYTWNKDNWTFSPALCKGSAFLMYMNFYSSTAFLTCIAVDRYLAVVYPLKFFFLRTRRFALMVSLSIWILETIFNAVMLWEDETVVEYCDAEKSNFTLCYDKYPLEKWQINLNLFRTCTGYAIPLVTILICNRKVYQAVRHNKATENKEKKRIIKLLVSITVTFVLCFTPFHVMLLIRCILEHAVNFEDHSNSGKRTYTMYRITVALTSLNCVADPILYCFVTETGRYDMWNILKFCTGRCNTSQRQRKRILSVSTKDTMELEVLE

SMILES	IC50 [nM]
O=C(Nc1ccc(-c2ccc(OCC(F)(F)F)nc2)cc1F)N1[C@H]2CC[C@@H]1c1n[nH]c(=O)cc1C2 [Compound 21, (6S,9R)-N-(2-fluoro-4-(6-(2,2,2-trifluoroethoxy)pyridin-3-yl)phenyl)-3-oxo-3,5,6,7,8,9-hexahydro-2H-6,9-epiminocyclohepta[c]pyridazine-10-carboxamide]	< 500
O=C(Nc1cc(Cl)c(-c2ccc(OCC(F)(F)F)nc2)cc1F)N1[C@@H]2CC[C@H]1C(F)(F)c1c2ccnc1F [Compound 71, (5R,8S)-N-(5-Chloro-2-fluoro-4-(6-(2,2,2-trifluoroethoxy)pyridin-3-yl)phenyl)-1,9,9-trifluoro-6,7,8,9-tetrahydro-5H-5,8-epiminocyclohepta[c]pyridine-10-carboxamide]	< 500
O=C(Nc1cc(Cl)c(-c2ccc(OC3CCCC3)nc2)cc1F)N1[C@H]2CC[C@@H]1c1c[nH]c(=O)cc1C2 [Compound 10, (6S,9R)-N-(5-chloro-4-(6-(cyclopentyloxy)pyridin-3-yl)-2-fluorophenyl)-3-oxo-3,5,6,7,8,9-hexahydro-2H-6,9-epiminocyclohepta[c]pyridine-10-carboxamide]	< 500
CN1CC2(COc3ccc(-c4cc(F)c(NC(=O)N5[C@H]6CC[C@@H]5c5c[nH]c(=O)cc5C6)cc4Cl)cn3)CC1C2 [Compound 61, (6S,9R)-N-(5-Chloro-2-fluoro-4-(6-((2-methyl-2-azabicyclo[2.1.1]hexan-4-yl)methoxy)pyridin-3-yl)phenyl)-3-oxo-3,5,6,7,8,9-hexahydro-2H-6,9-epiminocyclohepta[c]pyridine-10-carboxamide]	500 to 5000
O=C(Nc1cc(Cl)c(COc2ccc(OCC(F)(F)F)cn2)cc1F)N1[C@H]2CC[C@@H]1c1n[nH]c(=O)cc1C2 [Compound 55, (6S,9R)-N-(5-Chloro-2-fluoro-4-(((5-(2,2,2-trifluoroethoxy)pyridin-2-yl)oxy)methyl)phenyl)-3-oxo-3,5,6,7,8,9-hexahydro-2H-6,9-epiminocyclohepta[c]pyridazine-10-carboxamide]	< 500
O=C(Nc1cc(Cl)c(Cl)cc1OCC1CC1(F)F)N1[C@H]2CC[C@@H]1c1n[nH]c(=O)cc1C2 (stereo partly drawn) [Compound 88, (6S,9R)-N-(4,5-Dichloro-2-((2,2-difluorocyclopropyl)methoxy)phenyl)-3-oxo-3,5,6,7,8,9-hexahydro-2H-6,9-epiminocyclohepta[c]pyridazine-10-carboxamide]	> 5000
O=C(Nc1cc(Cl)c(-c2cnc(OCC(F)(F)F)c(F)c2)cc1F)N1[C@H]2CC[C@@H]1c1c[nH]c(=O)cc1C2 [Compound 11, (6S,9R)-N-(5-chloro-2-fluoro-4-(5-fluoro-6-(2,2,2-trifluoroethoxy)pyridin-3-yl)phenyl)-3-oxo-3,5,6,7,8,9-hexahydro-2H-6,9-epiminocyclohepta[c]pyridine-10-carboxamide]	< 500
O=C(Nc1cc(Cl)c(-c2ccc(O[C@H]3CCN(CC(F)(F)F)C3)nc2)cc1F)N1[C@H]2CC[C@@H]1c1c[nH]c(=O)cc1C2 (single isomer, unassigned) [Compound 78]	< 500
CN(C(=O)N1[C@H]2CC[C@@H]1c1n[nH]c(=O)cc1C2)c1cc(Cl)c(-c2ccc(OCC(F)(F)F)nc2)cc1F [Compound 9, (6S,9R)-N-(5-chloro-2-fluoro-4-(6-(2,2,2-trifluoroethoxy)pyridin-3-yl)phenyl)-N-methyl-3-oxo-3,5,6,7,8,9-hexahydro-2H-6,9-epiminocyclohepta[c]pyridazine-10-carboxamide]	500 to 5000
O=C(Nc1cc(Cl)c(-c2ccc(OC[C@H]3CC3(F)F)nc2)cc1F)N1[C@H]2CC[C@@H]1c1c[nH]c(=O)cc1C2 [Compound 82, (6S,9R)-N-(5-Chloro-4-(6-(((R)-2,2-difluorocyclopropyl)methoxy)pyridin-3-yl)-2-fluorophenyl)-3-oxo-3,5,6,7,8,9-hexahydro-2H-6,9-epiminocyclohepta[c]pyridine-10-carboxamide]	< 500
O=C(Nc1cc(Cl)c(-c2ccc(OC[C@H]3CCOC3)nc2)cc1F)N1[C@H]2CC[C@@H]1c1n[nH]c(=O)cc1C2 [Compound 80, (6S,9R)-N-(5-Chloro-2-fluoro-4-(6-(((S)-tetrahydrofuran-3-yl)methoxy)pyridin-3-yl)phenyl)-3-oxo-3,5,6,7,8,9-hexahydro-2H-6,9-epiminocyclohepta[c]pyridazine-10-carboxamide]	< 500
O=C(Nc1cc(Cl)c(-c2ccc(OC3CCOCC3)nc2)cc1F)N1[C@H]2CC[C@@H]1c1n[nH]c(=O)cc1C2 [Compound 84, (6S,9R)-N-(5-Chloro-2-fluoro-4-(6-((tetrahydro-2H-pyran-4-yl)oxy)pyridin-3-yl)phenyl)-3-oxo-3,5,6,7,8,9-hexahydro-2H-6,9-epiminocyclohepta[c]pyridazine-10-carboxamide]	< 500
O=C(Nc1cc(Cl)c(-c2ccc(CC(F)(F)F)nc2)cc1F)N1[C@H]2CC[C@@H]1c1c[nH]c(=O)cc1C2 [Compound 40, (6S,9R)-N-(5-chloro-2-fluoro-4-(6-(2,2,2-trifluoroethyl)pyridin-3-yl)phenyl)-3-oxo-3,5,6,7,8,9-hexahydro-2H-6,9-epiminocyclohepta[c]pyridine-10-carboxamide]	< 500
CN(CC(F)(F)F)c1ccnc(-c2cc(F)c(NC(=O)N3[C@H]4CC[C@@H]3c3c[nH]c(=O)cc3C4)cc2Cl)c1 [Compound 39, (6S,9R)-N-(5-chloro-2-fluoro-4-(4-(methyl(2,2,2-trifluoroethyl)amino)pyridin-2-yl)phenyl)-3-oxo-3,5,6,7,8,9-hexahydro-2H-6,9-epiminocyclohepta[c]pyridine-10-carboxamide]	< 500
O=C(Nc1cc(Cl)c(-c2ccc(O[C@@H]3CCN(CC(F)(F)F)C3)nc2)cc1F)N1[C@H]2CC[C@@H]1c1c[nH]c(=O)cc1C2 (single isomer, unassigned) [Compound 77]	< 500
O=C(Nc1cc(Cl)c(Cl)cc1F)N1[C@H]2CC[C@@H]1c1ccncc1C2 [Compound 49, (5R,8S)-N-(4,5-dichloro-2-fluorophenyl)-6,7,8,9-tetrahydro-5H-5,8-epiminocyclohepta[c]pyridine-10-carboxamide]	< 500
O=C(Nc1cc(Cl)c(-c2ccc(NCC(F)(F)F)nc2)cc1F)N1[C@H]2CC[C@@H]1c1n[nH]c(=O)cc1C2 [Compound 2, (6S,9R)-N-(5-chloro-2-fluoro-4-(6-((2,2,2-trifluoroethyl)amino)pyridin-3-yl)phenyl)-3-oxo-3,5,6,7,8,9-hexahydro-2H-6,9-epiminocyclohepta[c]pyridazine-10-carboxamide]	< 500
O=C(Nc1cc(Cl)c(-c2ccc3nonc3c2)cn1)N1C2CCC1[C@H](F)c1c2ccnc1F (mixture of isomers) [Compound 5, (±,9S)-N-(5-(benzo[c][1,2,5]oxadiazol-5-yl)-4-chloropyridin-2-yl)-1,9-difluoro-6,7,8,9-tetrahydro-5H-5,8-epiminocyclohepta[c]pyridine-10-carboxamide]	< 500
O=C(Nc1cc(Cl)c(-c2ccc(OCC3CN(CC(F)(F)F)C3)nc2)cc1F)N1[C@H]2CC[C@@H]1c1c[nH]c(=O)cc1C2 [Compound 32, (6S,9R)-N-(5-chloro-2-fluoro-4-(6-((1-(2,2,2-trifluoroethyl)azetidin-3-yl)methoxy)pyridin-3-yl)phenyl)-3-oxo-3,5,6,7,8,9-hexahydro-2H-6,9-epiminocyclohepta[c]pyridine-10-carboxamide]	< 500
CN(C(=O)C(F)(F)F)c1ccc(-c2cc(F)c(NC(=O)N3[C@H]4CC[C@@H]3c3c[nH]c(=O)cc3C4)cc2Cl)cn1 [Compound 31, (6S,9R)-N-(5-chloro-2-fluoro-4-(6-(2,2,2-trifluoro-N-methylacetamido)pyridin-3-yl)phenyl)-3-oxo-3,5,6,7,8,9-hexahydro-2H-6,9-epiminocyclohepta[c]pyridine-10-carboxamide]	500 to 5000
O=C(Nc1cc(Cl)c(-c2ccc(OCC(F)(F)F)nn2)cc1F)N1[C@H]2CC[C@@H]1c1c[nH]c(=O)cc1C2 [Compound 12, (6S,9R)-N-(5-chloro-2-fluoro-4-(6-(2,2,2-trifluoroethoxy)pyridazin-3-yl)phenyl)-3-oxo-3,5,6,7,8,9-hexahydro-2H-6,9-epiminocyclohepta[c]pyridine-10-carboxamide]	< 500

From patent US20260285863A1, “COMPOUNDS CAPABLE OF MODULATING GPR65” (Pathios Therapeutics Limited, priority 2023, published 2026)
